Results published in PMC10726451, “MAIP: An Open-Source Tool to Enrich High-Throughput Screening Output and Identify Novel, Druglike Molecules with Antimalarial Activity” (ACS Medicinal Chemistry Letters, 2023).
Values after ≈ are worked out from the molar mass of the structure shown. Where two headings read alike, the source gives them in different places.

How the values were obtained:
[1] = in vitro; format: cell-based; conditions: human
Experimental: Here, this state of the art screening platform was applied to CQL (Figure 3). During solubilization and reformatting activities, 40 samples were identified with solubility issues and removed from the screening set, thereby leaving 5810 compounds (4623 scored + 1187 randomly selected). A primary screen was conducted at a single concentration (2 μM) against P. falciparum NF54 (nanoGlo readout over 72 h incubation). […] These compounds were then tested in five-point dose–response curve (DRC) assays, each of which provides key information to decide which compound(s) to progress (highlighted in blue). Five different assays were carried out, including three parasite growth assays over 72 h of incubation (P. falciparum NF54 in both nanoGlo and pLDH read-outs and P. falciparum Dd2 in pLDH read-out), one parasite growth assay over 12 h of incubation (P. falciparum NF54 in nanoGlo read-out) in order to evaluate the speed of action, and a cytotoxicity assay against human HepG2 cells over 72 h of incubation. Out of 36 screening active compounds (36 + 0) fulfilling all of the ideal criteria, 12 were deemed attractive in terms of chemical novelty and diversity for further progression and evaluation. This set of compounds was further complemented with others that passed at least three of the five DRC criteria, together with assessments of chemical novelty and diversity, which led to 33 selected compounds. Twenty-two compounds (those still available from commercial suppliers) were repurchased, and the compound efficacy was retested against P. falciparum 3D7 (pLDH readout over 72 h incubation) and human HepG2 cells over 72 h of incubation at a different testing center. […]
(§1) The Medicines for Malaria Venture (MMV)’s P. falciparum asexual blood stage phenotypic screening platform was used to experimentally validate the selected compounds. Full details can be found in a recent publication.5 Briefly, the HTS cascade relies on a newly developed P. falciparum strain genetically modified to express a nano-luciferase reporter gene driven by the ef1α promoter. In addition to providing similar results compared to a fluorescence-based assay, this reporter provided a robust read-out for parasite replication with incubation times as short […]
(§2) The screening platform consists of a primary screening where the compounds were tested at a single concentration (2 μM) against the chloroquine and pyrimethamine sensitive P. falciparum strain NF54 using a nanoGlo detection reagent. Compounds that exceeded a Z-score threshold of -4 were screened a second time in this assay format in addition to an orthogonal assay (P. falciparum NF54, pLDH). Only the compounds inhibiting parasite growth by more than 30% were then tested in five dose-response curve (DRC) assays. These assays were designed to evaluate different aspects any future antimalarial drug has to fulfil: - sensitivity (P. falciparum NF54, nanoGlo and P. falciparum NF54, pLDH); - efficacy against resistant parasite strains (P. falciparum Dd2, pLDH); - low cellular toxicity (HepG2 cells). In addition, to evaluate their speed of action, […]
versus 72 hours for the assays previously mentioned. […]
Compounds still commercially available for re-stock were purchased and retested in a different laboratory against P. falciparum 3D7 with a pLDF read-out, […]
(§3) and in human HepG2 cells. […]
(§4) in the parasite growth inhibition assay, and higher than 10 μM in the cell viability assay obtained in two distinct locations. […]

[2] = Metabolic stability in cryopreserved rat hepatocytes; format: in vitro ADME
Experimental: Metabolic stability using cryopreserved rat hepatocytes
A solution of the test compound in Krebs-Henseleit buffer solution (1 µM) was incubated in […]
CO2, 95% relative humidity). The reaction was terminated with the addition of ice-cold acetonitrile containing system suitability standard at designated time points. The sample was centrifuged (4200 rpm) for 20 minutes at 20 °C and the supernatant was half diluted in water and then analysed by means of LC-MS/MS. Compound clearance (CLint,app) was calculated using standard methodology. The experiment was carried out in duplicate. Diltiazem, 7-ethoxy coumarin, propranolol and midazolam were used as reference standards. […]

[3] = Metabolic stability in human liver microsomes; format: in vitro ADME; conditions: 1 µM compound, 0.5 mg/mL pooled human liver microsomes
Experimental: Metabolic stability study using human liver microsomes
A solution of the test compounds in phosphate buffer solution (1 µM) was incubated in pooled human liver microsomes (0.5 mg/mL) for 0, 5, 20, 30, 45 and 60 minutes at 37 °C in the presence and absence of NADPH regeneration system. The reaction was terminated with the addition of ice-cold acetonitrile containing system suitability standard at designated time points. The sample was centrifuged (4200 rpm) for 20 minutes at 20 °C and the supernatant was half diluted in water and then analysed by means of LC-MS/MS. Compound clearance (CLint,app) was […]
calculated using standard methodology. The experiment was carried out in duplicate.
Verapamil, diltiazem, phenacetin and imipramine were used as reference standards. […]

[4] = tested on: P. falciparum Dd2; assay: P. falciparum Dd2 parasite growth, pLDH readout, 72 h incubation; format: cell-based; conditions: Plasmodium falciparum, read-out: Dd2 LDH (72 h) IC50
Experimental: Here, this state of the art screening platform was applied to CQL (Figure 3). During solubilization and reformatting activities, 40 samples were identified with solubility issues and removed from the screening set, thereby leaving 5810 compounds (4623 scored + 1187 randomly selected). A primary screen was conducted at a single concentration (2 μM) against P. falciparum NF54 (nanoGlo readout over 72 h incubation). […] These compounds were then tested in five-point dose–response curve (DRC) assays, each of which provides key information to decide which compound(s) to progress (highlighted in blue). Five different assays were carried out, including three parasite growth assays over 72 h of incubation (P. falciparum NF54 in both nanoGlo and pLDH read-outs and P. falciparum Dd2 in pLDH read-out), one parasite growth assay over 12 h of incubation (P. falciparum NF54 in nanoGlo read-out) in order to evaluate the speed of action, and a cytotoxicity assay against human HepG2 cells over 72 h of incubation. Out of 36 screening active compounds (36 + 0) fulfilling all of the ideal criteria, 12 were deemed attractive in terms of chemical novelty and diversity for further progression and evaluation. This set of compounds was further complemented with others that passed at least three of the five DRC criteria, together with assessments of chemical novelty and diversity, which led to 33 selected compounds. Twenty-two compounds (those still available from commercial suppliers) were repurchased, and the compound efficacy was retested against P. falciparum 3D7 (pLDH readout over 72 h incubation) and human HepG2 cells over 72 h of incubation at a different testing center.
No unexpected or unusually high safety hazards were encountered.
as §1, §2

[5] = tested on: P. falciparum 3D7; assay: P. falciparum 3D7 parasite growth, pLDH readout, 72 h incubation; format: cell-based; conditions: Plasmodium falciparum, P. falciparum 3D7, pLDH readout, read-out: 3D7 LDH (72 h) IC50
Experimental: Afterwards, the remaining compounds were evaluated for their attractiveness derived from the chemical diversity relative to existing antimalarial drugs (Table S2 / Supplementary file SMILES-Table S2.xls) and calculated using Tanimoto similarity based on 2D molecular fingerprints. At this stage the list of remaining compounds was expanded with additional compounds that fulfilled at least 3 of the DRC assays criteria. Compounds still commercially available for re-stock were purchased and retested in a different laboratory against P. falciparum 3D7 with a pLDF read-out, […]
as §3, §4

[6] = Solubility in PBS pH 7.4, miniaturised shake flask; format: physicochemical; conditions: kinetic from dmso stock, 25 °C
Experimental: Solubility in phosphate buffered saline (PBS) pH7.4
The solubility assay was performed using a miniaturised shake flask method. A solution of phosphate buffered saline (PBS) and the test compound (200 µM) was incubated at 25 °C with constant shaking (600 rpm) for 2 hours. The samples were filtered using a multiscreen solubility filter plate. The filtrate was half diluted in acetonitrile. A five-point linearity curve was prepared in PBS:Acetonitrile (1:1, v/v) at 200, 150, 75, 25 and 2.5 µM. Blank, linearity and test samples (n = 2) were transferred to a UV readable plate and the plate was scanned for absorbance. Best […]
fit calibration curves were constructed using the calibration standards and used to determine the test sample solubility. The experiment was carried out in duplicate. Diethylstilbestrol, haloperidol and sodium diclofenac were used as reference standards. […]

[7] = LogD at pH 7.4, miniaturised shake flask; format: physicochemical
Experimental: The LogD pH7.4 assay was performed using a miniaturised shake flask method. A solution of a pre-saturated mixture of 1-octanol and PBS (1:1, v/v) and the test compound (75 µM) was incubated at 25 °C with constant shaking (850 rpm) for 2 hours. After incubation the organic and aqueous phases were separated, and samples of each phase transferred to plate for dilution. The organic phase was diluted to 1000-fold and the aqueous phase was diluted 20-fold. The samples were quantitated using LC-MS/MS. The experiment was carried out in duplicate. Propranolol, amitriptyline and midazolam were used as reference standards. […]

[8] = tested on: P. falciparum 3D7; design: method as in ChEMBL (version 32), ref 29; conditions: ref ChEMBL (version 32), cited from earlier work
[9] = pooled cryopreserved rat hepatocytes, 1 µM compound, pooled rat hepatocytes 1×10^6 cells/mL, read-out: rat hepatocytes CLint
[10] = phosphate buffered saline, aqueous buffer, PBS pH 7.4, test compound 200 µM, 2 hours
[11] = 1-octanol/PBS (1:1, v/v), pre-saturated, 1-octanol/PBS, pH 7.4, 25 °C, read-out: LogD pH 7.4
[12] = read-out: Antimalarial activity: XC50
[13] = phosphate buffered saline, aqueous buffer, PBS pH 7.4, test compound 200 µM, 2 hours, read-out: kinetic solubility

COc1ccc(-c2cncc(C(=O)NCC3CCN(CCN(C)C)CC3)c2)cc1 [MMV1799348]
IC50 at 72 h [1]: > 25000 nM | hepatocyte CLint at 1.5 h, 1 µM [2, 9]: 1.2 µL/min/1e6 cells | microsomal CLint at 1 h, 1 µM [3]: 3.5 µL/min/mg | IC50 ([4]; DD2, 72 h): 2700 nM | IC50 [5]: 1100 nM | solubility kinetic at 2 h, 200 µM [6, 10]: 198 µM (≈ 78.5 µg/mL) | logD at 2 h, 75 µM [7, 11]: 1.2

CC1(N2CCC2)CCC(NCC2CCN(Cc3ccccc3)C2)CC1 (centres unmarked) [MMV1798925]
IC50 at 72 h [1]: 19100 nM | hepatocyte CLint at 1.5 h, 1 µM [2, 9]: 7.2 µL/min/1e6 cells | microsomal CLint at 1 h, 1 µM [3]: 3.5 µL/min/mg | IC50 ([4]; DD2, 72 h): 1500 nM | IC50 [5]: 1100 nM | solubility kinetic at 2 h, 200 µM [6, 10]: 173 µM (≈ 59.1 µg/mL) | logD at 2 h, 75 µM [7, 11]: 0.3

CC1CCN(Cc2cccc(C(=O)NCc3ccc(F)c(-c4ccc(CN5CCN[C@H](C)C5)cc4)c3)c2)CC1 [CHEMBL580242]
IC50 [8, 12]: 1460 nM

Cc1c(CN2CCC(O)(Cn3ccnc3)CC2)[nH]c2c(Cl)cccc12 [MMV1801316]
IC50 at 72 h [1]: > 25000 nM | hepatocyte CLint at 1.5 h, 1 µM [2, 9]: 2.7 µL/min/1e6 cells | microsomal CLint at 1 h, 1 µM [3]: 24.1 µL/min/mg | IC50 ([4]; DD2, 72 h): 3600 nM | IC50 [5]: 1500 nM | solubility kinetic at 2 h, 200 µM [6, 10]: 86 µM (≈ 30.9 µg/mL) | logD at 2 h, 75 µM [7, 11]: 2.8

c1ccc(-c2ccnc(C3CCN(CC45CNCC4C5)CC3)n2)cc1 (centres unmarked) [MMV1797658]
IC50 at 72 h [1]: 22100 nM | hepatocyte CLint at 1.5 h, 1 µM [2, 9]: 7.2 µL/min/1e6 cells | microsomal CLint at 1 h, 1 µM [3]: 3.5 µL/min/mg | IC50 ([4]; DD2, 72 h): 1500 nM | IC50 [5]: 780 nM | solubility kinetic at 2 h [6, 13]: ≥ 200 µM | logD at 2 h, 75 µM [7, 11]: 0.5

Oc1cc(CN2CCC(O)(Cn3ccnc3)CC2)nc2c(Cl)cccc12 [CHEMBL3476473]
IC50 ([8]; read-out: Antimalarial activity: inhibition): 882 nM

CN1CCN(CCCCNC2CC3CCC(C2)N3Cc2ccccc2)CC1 (centres unmarked) [MMV1797951]
IC50 at 72 h [1]: 13800 nM | hepatocyte CLint at 1.5 h, 1 µM ([2]; rat, hepatocytes): 1.4 µL/min/1e6 cells | microsomal CLint at 1 h, 1 µM [3]: 8.3 µL/min/mg | IC50 ([4]; P. falciparum Dd2 (drug-resistant), pLDH readout, 72 h): 980 nM | IC50 [5]: 1000 nM | solubility kinetic at 2 h ([6]; pH 7.4, aqueous buffer): ≥ 200 µM | logD at 2 h, 75 µM ([7]; pH 7.4): -0.2

CN1CCC(Oc2ccc(NC(=O)c3cn4ccnc4s3)cn2)CC1 [MMV1797331]
IC50 at 72 h [1]: 21600 nM | hepatocyte CLint at 1.5 h, 1 µM [2, 9]: 1.9 µL/min/1e6 cells | microsomal CLint at 1 h, 1 µM [3]: 3.7 µL/min/mg | IC50 ([4]; DD2, 72 h): 2000 nM | IC50 [5]: 1900 nM | solubility kinetic at 2 h [6, 13]: ≥ 200 µM | logD at 2 h, 75 µM [7, 11]: 1

COc1c(C2CCN(CCN3CCC(CNC(=O)c4ccc(-c5ccc(C#N)cc5)cc4)CC3)CC2)ccc2c1CCCC2 [CHEMBL528171]
IC50 [8, 12]: 445 nM

Cc1cnccc1N1CCCN(Cc2ccccc2OCCN2CCN(C)CC2)CC1 [MMV1802771]
IC50 at 72 h [1]: 20000 nM | hepatocyte CLint at 1.5 h, 1 µM [2, 9]: 2.6 µL/min/1e6 cells | microsomal CLint at 1 h, 1 µM [3]: 11 µL/min/mg | IC50 ([4]; DD2, 72 h): 1100 nM | IC50 [5]: 810 nM | solubility kinetic at 2 h, 200 µM [6, 10]: 100 µM (≈ 42.4 µg/mL) | logD at 2 h, 75 µM [7, 11]: 1

O=C(NC1CCN(CCOc2ccc(Cl)cc2)CC1)c1c[nH]c2ccncc2c1=O [MMV1798946]
IC50 at 72 h [1]: > 25000 nM | hepatocyte CLint at 1.5 h, 1 µM [2, 9]: 2 µL/min/1e6 cells | microsomal CLint at 1 h, 1 µM [3]: 14 µL/min/mg | IC50 ([4]; DD2, 72 h): 2000 nM | IC50 [5]: 750 nM | solubility kinetic at 2 h, 200 µM [6, 10]: 170 µM (≈ 72.6 µg/mL) | logD ([7]; 1-octanol/PBS (1:1, v/v), pre-saturated, 1-octanol/PBS, pH 7.4, 25 °C): 2.9
